Measured values published in PubChem BioAssay (NCI).
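Cells were grown in 96-well plates and exposed to each compound for 48 hours at five concentrations; endpoints were interpolated linearly between bracketing concentrations, or set to the highest concentration if not reached. GI50 is the concentration that inhibits growth by half. The concentration for full growth arrest is given as TGI.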

How the values were obtained:
Experiment in all cases: growth of human tumour cells (NCI), 48 h
[1] = system: 786-0 renal
[2] = system: A498 renal
[3] = system: A549 NSCLC
[4] = system: ACHN renal
[5] = system: BT-549 breast
[6] = system: CAKI-1 renal
[7] = system: CCRF-CEM leukemia
[8] = system: COLO 205 colon
[9] = system: DU-145 prostate
[10] = system: EKVX NSCLC
[11] = system: HCC-2998 colon
[12] = system: HCT-116 colon
[13] = system: HCT-15 colon
[14] = system: HL-60(TB) leukemia
[15] = system: HOP-62 NSCLC
[16] = system: HOP-92 NSCLC
[17] = system: HS 578T breast
[18] = system: HT29 colon
[19] = system: IGROV1 ovarian
[20] = system: K-562 leukemia
[21] = system: KM12 colon
[22] = system: LOX IMVI melanoma
[23] = system: M14 melanoma
[24] = system: MALME-3M melanoma
[25] = system: MCF7 breast
[26] = system: MDA-MB-231 breast
[27] = system: MDA-MB-435
[28] = system: MOLT-4 leukemia
[29] = system: NCI-H226 lung
[30] = system: NCI-H23 lung
[31] = system: NCI-H460 lung
[32] = system: NCI-H522 lung
[33] = system: NCI/ADR-RES ovarian
[34] = system: OVCAR-3 ovarian
[35] = system: OVCAR-4 ovarian
[36] = system: OVCAR-5 ovarian
[37] = system: OVCAR-8 ovarian
[38] = system: PC-3 prostate
[39] = system: RPMI-8226 leukemia
[40] = system: RXF 393 renal
[41] = system: SF-268 CNS
[42] = system: SF-295 CNS
[43] = system: SF-539 CNS
[44] = system: SK-MEL-2 melanoma
[45] = system: SK-MEL-28 melanoma
[46] = system: SK-MEL-5 melanoma
[47] = system: SK-OV-3 ovarian
[48] = system: SN12C renal
[49] = system: SNB-19 CNS
[50] = system: SNB-75 CNS
[51] = system: SR leukemia
[52] = system: SW-620 colon
[53] = system: T-47D breast
[54] = system: TK-10 renal
[55] = system: U251 CNS
[56] = system: UACC-257 melanoma
[57] = system: UACC-62 melanoma
[58] = system: UO-31 renal

CC1(C)N=C(N)N=C(N)N1c1ccc(F)c(C(F)(F)F)c1
GI50 [1]: 0.543 µM
TGI [1]: > 100 µM
GI50 [2]: 9.84 µM
TGI [2]: > 100 µM
GI50 [3]: 0.31 µM
GI50 [4]: 2.28 µM
TGI [4]: > 100 µM
GI50 [5]: 1.96 µM
TGI [5]: > 87.9 µM
GI50 [6]: 4.92 µM
TGI [6]: > 93.1 µM
GI50 [7]: 0.532 µM
TGI [7]: > 100 µM
GI50 [8]: 5.11 µM
TGI [8]: > 100 µM
GI50 [9]: 3.18 µM
TGI [9]: > 100 µM
GI50 [10]: 1.53 µM
TGI [10]: > 100 µM
GI50 [11]: 1.85 µM
TGI [11]: > 100 µM
GI50 [12]: 0.172 µM
TGI [12]: > 100 µM
GI50 [13]: 1.58 µM
TGI [13]: > 100 µM
GI50 [14]: 0.438 µM
TGI [14]: > 100 µM
TGI [15]: > 100 µM
GI50 [16]: 12.4 µM
TGI [16]: > 100 µM
GI50 [17]: 21.2 µM
TGI [17]: > 100 µM
GI50 [18]: 0.363 µM
TGI [18]: > 100 µM
GI50 [19]: 0.53 µM
TGI [19]: > 100 µM
GI50 [20]: 0.121 µM
TGI [20]: > 100 µM
GI50 [21]: 1.81 µM
TGI [21]: > 100 µM
GI50 [22]: 0.4 µM
TGI [22]: > 100 µM
GI50 [23]: 0.827 µM
TGI [23]: > 100 µM
GI50 [24]: 26.7 µM
TGI [24]: > 100 µM
GI50 [25]: 0.998 µM
TGI [25]: > 100 µM
GI50 [26]: > 100 µM
TGI [26]: > 100 µM
GI50 [27]: 0.239 µM
TGI [27]: > 100 µM
GI50 [28]: 0.727 µM
TGI [28]: > 100 µM
GI50 [29]: > 27.6 µM
TGI [29]: > 100 µM
GI50 [30]: 2.53 µM
TGI [30]: > 100 µM
GI50 [31]: 0.42 µM
TGI [31]: > 100 µM
GI50 [32]: 3.78 µM
TGI [32]: > 100 µM
GI50 [33]: > 83.6 µM
TGI [33]: > 100 µM
GI50 [34]: 5.62 µM
TGI [34]: > 100 µM
GI50 [35]: 22.6 µM
TGI [35]: > 100 µM
GI50 [36]: > 100 µM
TGI [36]: > 100 µM
GI50 [37]: 0.597 µM
TGI [37]: > 100 µM
GI50 [38]: 0.256 µM
TGI [38]: > 100 µM
GI50 [39]: 3.42 µM
TGI [39]: > 100 µM
GI50 [40]: > 31.5 µM
TGI [40]: > 100 µM
GI50 [41]: 0.158 µM
TGI [41]: > 100 µM
GI50 [42]: 0.408 µM
GI50 [43]: 0.71 µM
TGI [43]: > 100 µM
GI50 [44]: > 27.9 µM
TGI [44]: > 100 µM
GI50 [45]: 15.9 µM
TGI [45]: > 100 µM
GI50 [46]: 3.04 µM
TGI [46]: > 100 µM
GI50 [47]: 10.7 µM
TGI [47]: > 100 µM
GI50 [48]: 5.13 µM
TGI [48]: > 100 µM
GI50 [49]: 4.47 µM
TGI [49]: > 100 µM
TGI [50]: > 100 µM
GI50 [51]: 0.444 µM
TGI [51]: > 100 µM
GI50 [52]: 0.233 µM
TGI [52]: > 100 µM
GI50 [53]: > 90.7 µM
TGI [53]: > 100 µM
GI50 [54]: 3.4 µM
TGI [54]: > 100 µM
GI50 [55]: 0.503 µM
TGI [55]: > 100 µM
GI50 [56]: > 57.8 µM
TGI [56]: > 100 µM
GI50 [57]: 2.25 µM
TGI [57]: > 100 µM
GI50 [58]: 8.86 µM
TGI [58]: > 100 µM
